Laboratory results from patent US4145554A, “3-Nitropyrazole derivatives” (Eli Lilly and Company, priority 1977, dated 1979).
Converted amounts (≈) assume the structure as drawn. “And” between values parts separate entries of the source, which are not always exact repeats. Identical values can stand only once. Like-named read-outs stand apart in the source and are kept apart here.

Legend:
E. coli = assay: Tests in mice, E. coli infection; type: in vivo
Experimental: (§1) Groups of laboratory mice were inoculatd with E. coli or with Streptococcus pyogenes. The 3-nitropyrazoles were administered in two different modes to the infected mice. In one group of tests, the compound was administered in two subcutaneous doses of 83 mg./kg. each, given 1 and 5 hours after the mice were inoculated with the organism. The mice were observed, and the results reported below as the number of days the treated mice survived the challenge.
(§2) In the other group of tests, the dose of each compound which allowed 50 percent of the treated mice to survive the challenge was determined. Again, the compound was administered in subcutane divided doses, 1 and 5 hours post-inoculation.

[1] = test system: Enterobacter cloacae and aerogenes; assay: agar dilution technique (MIC); type: cell-based
S. typhimurium = assay: Salmonella typhimurium in chickens, medicated feed; type: in vivo, chicks; conditions: for Avg. Wt.: surviving chicks
Erysipelas insidiosa = assay: in vitro tube dilution test (MIC); type: cell-based
[2] = test system: Streptococcus sp. (group E); assay: in vitro tube dilution test (MIC); type: cell-based
Streptococcus pyogenes = assay: Tests in mice, Streptococcus pyogenes infection; type: in vivo; conditions: S. pyogenes
Experimental: as §1, §2

Pasteurella multocida = assay: in vitro tube dilution test (MIC); type: cell-based; conditions: tube dilution, read-out: MIC
Procedure, shortened: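 Standard tube dilution test; MIC is the lowest compound concentration controlling growth, given in μg/mL.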

[3] = test system: Pasteurella multocida and P. hemolytica; assay: Pasteurella pneumonia in calves; type: in vivo
H. meleagridis = assay: Blackhead in poultry, turkeys; type: in vivo
Mycoplasma hyosynoviae = assay: in vitro tube dilution test (MIC); type: cell-based
Salmonella pullorum 9-25 = assay: in vitro tube dilution test (MIC); type: cell-based; conditions: Salmonella enterica; Salmonella pullorum 9-25, tube dilution
[4] = test system: Arizona hinshaw (paracolon); assay: in vitro tube dilution test (MIC); type: cell-based
Staphylococcus aureus = assay: agar dilution technique (MIC); type: cell-based
Proteus sp. = assay: agar dilution technique (MIC); type: cell-based
Escherichia coli = assay: agar dilution technique (MIC); type: cell-based
Staphylococcus sp. = assay: in vitro tube dilution test (MIC); type: cell-based
E. amylovora = assay: Fire blight of field-grown pear trees, natural and induced infections; type: in vivo; conditions: 100 to 800 ppm. aqueous dispersions
Experimental: Our compound, 1-(2-hydroxyethyl)-3-nitro-4-pyrazolecarboxamide, was also tested against natural and induced infections of E. amylovora on field-grown pear trees.

Streptococcus sp. = assay: in vitro tube dilution test (MIC); type: cell-based
M. gallisepticum = assay: Mycoplasma gallisepticum in chickens; type: in vivo
Experimental: A group of broiler type chickens, weighing about 1265 gm., were obtained from a homogeneous source flock. The birds were allocated into 12-bird treatment groups of equal weight. Four treatment groups were used in each of the treatments, including the untreated infected controls; two groups were held as normal controls.
The birds, other than the normal controls, were challenged by administering two 0.2 ml. injections of a freshly thawed M. gallisepticum culture to each bird, one injection in the wing vein and one in the air sac. Immediately after the challenge, four of the treatment groups were treated by injecting 25 mg./kg., intramuscularly, of 1-(2-hydroxyethyl)-3-nitro-4-pyrazolecarboxamide to each chicken. The other four treated groups received the same compound at 2 gm./gal. (about 50 mg./kg./day) in their drinking water for a period of 41/2 days after the challenge was administered.
The birds were held and observed for about 3 weeks. Mortality in the experiment was negligible. At the end of the observation period, the birds were sacrificed and examined for M. gallisepticum lesions of the air sac. A sample of blood from each bird was tested to determine the presence of M. gallisepticum antibodies. […] The final average weights and the air sac lesion counts are shown below.

P. multocida = assay: Pasteurellosis in chickens; type: in vivo; conditions: 100 gm. per ton of feed
[5] = two subcutaneous doses of 83 mg./kg., 1 and 5 hours
[6] = 8 days after challenge, 25 mg. per kg. intramuscular

SMILES: NC(=O)c1cn(CCO)nc1[N+](=O)[O-] [Compound 32, 1-(2-hydroxyethyl)-3-nitro-4-pyrazolecarboxamide]
- ED50 (E. coli; Escherichia coli, sc, subcutaneous, 1 and 5 hours post-inoculation): 19.6 mg/kg
- Days Survived (E. coli; [5]): 7.0 days
- MIC [1]: 32 µg/mL (≈ 160 µM)
- Survival (S. typhimurium; Test A, 100 gm./ton feed): 20/36
- Avg. Wt. (S. typhimurium; Test A, 100 gm./ton feed): 94 gm.
- Survival (S. typhimurium; Test B, 200 gm./ton feed): 35/36
- Avg. Wt. (S. typhimurium; Test B, 200 gm./ton feed): 107 gm.
- Survival (S. typhimurium; Test C, 200 gm./ton feed): 34/48
- Avg. Wt. (S. typhimurium; Test C, 200 gm./ton feed): 71 gm.
- MIC (Erysipelas insidiosa): > 50 µg/mL
- MIC [2]: 1.56 µg/mL (≈ 7.79 µM)
- Days Survived (Streptococcus pyogenes; [5]): 5.0 days
- ED50 (Streptococcus pyogenes; Streptococcus pyogenes, sc, subcutaneous, 1 and 5 hours post-inoculation): 53.7 mg/kg
- MIC (Pasteurella multocida; Cattle Isolates): < 1.56 µg/mL
- MIC (Pasteurella multocida; Swine Isolate (first line)): > 50 µg/mL
- MIC (Pasteurella multocida; Swine Isolate (second line)): 6.25 µg/mL (≈ 31.2 µM)
- MIC (Pasteurella multocida; Turkey Isolates): > 50 µg/mL
- pasteurellae identified in lungs [3, 6]: No pasteurellae were identified in the lungs of any of the three animals
- physical examination of lungs [3, 6]: minor consolidation or emphysema in areas of the lungs
- extent of pasteurella infection ([3]; indicated by temperatures, 25 mg. per kg. intramuscular): only a very mild pasteurella infection
- Average Temperature ([3]; post-challenge, 25 mg. per kg. intramuscular daily for five days): 102.7 ° F.
- Active Level (lowest feed concentration which gave an active response) (H. meleagridis): .02%
- MIC (Mycoplasma hyosynoviae): 50 µg/mL (≈ 250 µM)
- MIC (Salmonella pullorum 9-25): < 1.56 µg/mL
- MIC [4]: 6.25 µg/mL (≈ 31.2 µM)
- MIC (Staphylococcus aureus): 8 to 16 µg/mL (≈ 40 to 79.9 µM)
- MIC (Proteus sp.): > 128 µg/mL
- MIC (Escherichia coli): 8 µg/mL (≈ 40 µM)
- MIC (Staphylococcus sp.): 3.12 µg/mL (≈ 15.6 µM)
- control of fire blight on field-grown pear trees (E. amylovora): controlled fire blight on the pear trees
- MIC (Streptococcus sp.): 25 µg/mL (≈ 125 µM)
- Air Sac Lesions (M. gallisepticum; 25 mg./kg. (injected)): 41/48
- Avg. Wt. (M. gallisepticum; 25 mg./kg. (injected)): 2093 gm.
- Air Sac Lesions (M. gallisepticum; 2.0 gm./gal. drinking water): 24/47
- Avg. Wt. (M. gallisepticum; 2.0 gm./gal. drinking water): 2188 gm.
- increase of birds' weight (M. gallisepticum; in one case (average, each)): more than 160 gm.
- increase of birds' weight (M. gallisepticum; in the other treatment (average, each)): ~260 gm.
- Mortality (P. multocida): about 12%
- presence of isolable P. multocida in treated birds (P. multocida): about half of the treated birds
- Culture Isolation (P. multocida; individual 8-bird group): 6/8 and 3/8
- Mortality Rate (P. multocida; individual 8-bird group): 2/8 and 0/8
- Culture Isolation, Total (P. multocida; total of two groups): 9/16
- Mortality Rate, Total (P. multocida; total of two groups): 2/16
